The values that follow are results of earlier work, collected in US20250026710A1, “PROCESS FOR PREPARING A BENZOATE SALT OF A 1-(3-AMINOPYRROLIDINE-1-CARBONYL)-3,4-DIPHENYLBENZENE COMPOUND” (Astex Pharmaceuticals, Inc., priority 2021, published 2025).

Counter-ions that a name gives are not always drawn.

For data set [1] the following is noted: rats, dose 32 mg/5 mL/kg; listed as benzoic acid salt of Compound (A).
For data set [2] the following is noted: under the tested conditions of WO 2021/095835.

Take `CC(C)(O)Cc1ccc(-c2ccc(C(=O)N3CC[C@H](N)C3)cc2-c2ccc(C#N)c(F)c2)c(F)c1` [benzoate salt of Compound (A)]: in data set [1], the Cmax is 2680 nM and the Tmax was 2.7 h. In addition, the solid stability result in data set [2] was “superior solid stability and maintains its purity up to four weeks”.

As a reminder, the Cmax is the maximum level reached in the sampled fluid or tissue. The term Tmax denotes the time from dosing to the highest level.
